Where no end group is shown, it is not given here.
How the values were obtained:
[1] = tested on: STAT1; assay: STAT1 activation in cytokine-stimulated macrophages (Western blot); format: cell-based, murine; settings: pre-incubation 50-150 ug/mL (Mut 150 ug/mL), IFNγ and IL-6 stimulation
Protocol: (§1) RAW264.7 macrophages and vascular smooth muscle cells (VSMC) cultured in a medium with 10% fetal bovine serum were used. The cells were synchronized (24 hours without serum), pre-incubated for 90 minutes with different peptide concentrations (miS1 or the control thereof, 50-150 μg/mL) and stimulated with cytokines (IFNγ […]). STAT activation was analyzed by means of Western blot for phosphorylated STAT1/STAT3 isoforms. JAK/STAT pathway-dependent chemokine (CCL2) expression was determined by means of ELISA. Cell viability was analyzed by MTT colorimetric assay and macrophage migration was analyzed by chemotaxis assay.

[2] = tested on: STAT3; assay: STAT3 activation in cytokine-stimulated macrophages (Western blot); format: cell-based, murine; settings: pre-incubation 50-150 ug/mL (Mut 150 ug/mL), IFNγ and IL-6 stimulation
Protocol: as §1

Mut: non-functional mutated peptide, F substituted with A: SEQ ID NO 3 DTHARTARSHSDYRRI, bound to lysine-palmitate; control of the experiments (not fully specified (N-terminus)) [reference compound]
STAT1 activation (phosphorylation) [1]: did not cause any effect
STAT3 activation (phosphorylation) [2]: did not cause any effect
